The values below come from PubChem BioAssay AID330 (DTP/NCI, 2004).

This experiment relates to P388 leukemia ip, CD2F1 mice, survival T/C. Nature of the experiment: NCI In Vivo Anticancer Drug Screen. Data for tumor model P388 Leukemia (intraperitoneal) in CD2F1 (CDF1) mice. The note with it: endpoint: median survival time, higher = longer survival. In short, it runs like this:
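Mice carrying the transplanted tumor received test compound or vehicle. Survival was recorded in each group, and the value is the treated-group measurement divided by that of the vehicle-treated control group.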

[1] abbreviates: dose: 50.0 mg/kg/injection, schedule: Q01DX005 (ip), vehicle: Klucel (hydroxypropylcellulose) (HPC).
The mark [2] stands for this setting: dose: 100.0 mg/kg/injection, schedule: Q01DX005 (ip), vehicle: Klucel (hydroxypropylcellulose) (HPC).
Where [3] appears, read: dose: 200.0 mg/kg/injection, schedule: Q01DX005 (ip), vehicle: Klucel (hydroxypropylcellulose) (HPC).
[4] abbreviates: dose: 50.0 mg/kg/injection, schedule: Q01DX005 (ip), vehicle: saline with Tween-80.
The mark [5] stands for this setting: dose: 100.0 mg/kg/injection, schedule: Q01DX005 (ip), vehicle: saline with Tween-80.
Setting [6] is: dose: 200.0 mg/kg/injection, schedule: Q01DX005 (ip), vehicle: saline with Tween-80.
The mark [7] stands for this setting: dose: 60.0 mg/kg/injection, schedule: Q01DX005 (ip), vehicle: Klucel (hydroxypropylcellulose) (HPC).
[8] abbreviates: dose: 120.0 mg/kg/injection, schedule: Q01DX005 (ip), vehicle: Klucel (hydroxypropylcellulose) (HPC).
Where [9] appears, read: dose: 240.0 mg/kg/injection, schedule: Q01DX005 (ip), vehicle: Klucel (hydroxypropylcellulose) (HPC).
The mark [10] stands for this setting: dose: 50.0 mg/kg/injection, schedule: Q01DX009 (ip), vehicle: saline with Tween-80.
The mark [11] stands for this setting: dose: 100.0 mg/kg/injection, schedule: Q01DX009 (ip), vehicle: saline with Tween-80.
Where [12] appears, read: dose: 200.0 mg/kg/injection, schedule: Q01DX009 (ip), vehicle: saline with Tween-80.
Where [13] appears, read: dose: 100.0 mg/kg/injection, schedule: Q04DX003 (ip), vehicle: saline with Tween-80.

Molecules are shown by their SMILES. “And” between values parts separate entries of the source, which are not always exact repeats. Equal entries are not always repeated. Inconclusive results and toxic doses are left out.

As for `Oc1cc2c(cc1C/C=C/c1ccccc1)OCO2`, the T/C was 101 % of control (dose: 2.5 mg/kg/injection, schedule: Q01DX009 (ip), vehicle: saline with Tween-80); 103 % of control (dose: 5.0 mg/kg/injection, schedule: Q01DX009 (ip), vehicle: saline with Tween-80); 101 % of control (dose: 10.0 mg/kg/injection, schedule: Q01DX009 (ip), vehicle: saline with Tween-80).

Turning to `Cc1ccc(S(=O)(=O)NC(CN(CC(=O)O)N=O)C(=O)O)cc1` (stereo not given), the T/C is, setting by setting: under setting [1], 97 % of control; under setting [2], 96 % of control; under setting [3], 98 % of control.

Take `CCOC1(C)OC2OC(COC(C)=O)C(OC(C)=O)C(OC(N)=O)C2O1` (stereo not given): the T/C was 97 % of control under setting [4], 92 % of control under setting [5] and 92 % of control under setting [6].

Take `CCOC(=O)Nc1cc(NC/C(=N\O)c2ccc3ccccc3c2)c([N+](=O)[O-])c(N)n1`: the T/C was 100 % of control under setting [7], 100 % of control under setting [8] and 96 % of control under setting [9].

As to `C1CSC(CCC2SCCCS2)SC1`, the T/C is 92 % of control under setting [10], 90 % of control under setting [11] and 87 % of control under setting [12].

On to `COC(=O)NC1CC(C2CO2)OC1=O` (stereo not given), for which the T/C is 101 % of control (dose: 50.0 mg/kg/injection, schedule: Q01DX005 (ip), vehicle: saline); 99 % of control (dose: 100.0 mg/kg/injection, schedule: Q01DX005 (ip), vehicle: saline); 109 % of control (dose: 200.0 mg/kg/injection, schedule: Q01DX005 (ip), vehicle: saline).

For `CSc1ccc(N2C(=O)CSC2=S)cc1Cl`, the T/C (dose: 50.0 mg/kg/injection, schedule: Q01DX009 (ip), vehicle: suspension in saline) is 101 % of control; the T/C (dose: 100.0 mg/kg/injection, schedule: Q01DX009 (ip), vehicle: suspension in saline) was 99 % of control; the T/C (dose: 200.0 mg/kg/injection, schedule: Q01DX009 (ip), vehicle: suspension in saline) is 104 % of control.

Consider `CC(=O)Cc1cc(-c2cc(CC(C)=O)nc(N)n2)nc(N)n1`, for which the T/C is 96 % of control (dose: 60.0 mg/kg/injection, schedule: Q01DX005 (ip), vehicle: saline); 96 % of control (dose: 120.0 mg/kg/injection, schedule: Q01DX005 (ip), vehicle: saline); 97 % of control (dose: 240.0 mg/kg/injection, schedule: Q01DX005 (ip), vehicle: saline).

In the case of `COC(=O)C1=C(C(=O)OC)P2(c3ccccc3)(c3ccccc3)N(c3ccccc3)C(=Nc3ccccc3)N2C1(c1ccccc1)c1ccccc1`, the T/C by setting is: under setting [1], 94 % of control; under setting [2], 102 % of control and 96 % of control; under setting [3], 100 % of control and 89 % of control.

Regarding `O=C1c2c(O)ccc(N3CCOCC3)c2C(=O)c2c(N3CCOCC3)ccc(O)c21`, the T/C is, setting by setting: under setting [7], 103 % of control; under setting [8], 98 % of control; under setting [9], 100 % of control.

`CC(=O)N1C(=O)N(Cl)C(=O)C1(C)c1cccs1` (stereo not given): the T/C is, setting by setting: under setting [13], 100 % of control; (dose: 200.0 mg/kg/injection, schedule: Q04DX003 (ip), vehicle: saline with Tween-80) 95 % of control; (dose: 400.0 mg/kg/injection, schedule: Q04DX003 (ip), vehicle: saline with Tween-80) 90 % of control.

Take `CCOC(=O)CCCc1ccc(N=NN(C)C)cc1`: the T/C was 118 % of control (dose: 66.0 mg/kg/injection, schedule: Q04DX003 (ip), vehicle: saline with Tween-80) and 159 % of control under setting [13].

Take `O=C(N/N=C\c1ccccc1O)c1cccc2ccccc12`: the T/C reads like this: under setting [1], 99 % of control; under setting [2], 99 % of control; under setting [3], 102 % of control.

For `CN(C)C(CC(=O)O)C(=O)O` (stereo not given), the T/C (dose: 50.0 mg/kg/injection, schedule: Q01DX009 (ip), vehicle: water) is 108 % of control; the T/C (dose: 100.0 mg/kg/injection, schedule: Q01DX009 (ip), vehicle: water) is 98 % of control; the T/C (dose: 200.0 mg/kg/injection, schedule: Q01DX009 (ip), vehicle: water) is 99 % of control.

As for `C=C(NC(=O)c1csc(-c2nc3c(cc2O)-c2nc(cs2)C(=O)NC(C(C)O)C(=O)N/C(=C\C)c2nc(cs2)C(=O)NC2CC(O)C(=O)OCc4cccc5[nH]c(c(C)c45)C(=O)SCC(NC(=O)c4csc2n4)c2nc-3cs2)n1)C(N)=O` (stereo not given), the T/C is 100 % of control (dose: 15.0 mg/kg/injection, schedule: Q01DX009 (ip), vehicle: Klucel (hydroxypropylcellulose) (HPC)); 99 % of control (dose: 30.0 mg/kg/injection, schedule: Q01DX009 (ip), vehicle: Klucel (hydroxypropylcellulose) (HPC)); 91 % of control (dose: 60.0 mg/kg/injection, schedule: Q01DX009 (ip), vehicle: Klucel (hydroxypropylcellulose) (HPC)); 88 % of control (dose: 120.0 mg/kg/injection, schedule: Q01DX009 (ip), vehicle: Klucel (hydroxypropylcellulose) (HPC)).

On to `CCCCS/C=C1\CCc2cc(OC)ccc2C12CC1=C(CCc3cc(OC)ccc31)C(SCCCC)C2` (stereo not given), for which the T/C under setting [10] is 94 % of control, the T/C under setting [11] is 88 % of control and the T/C under setting [12] is 87 % of control.

Regarding `O=C(O)c1c2cc(Br)ccc2nc2[nH]c(=O)[nH]c(=O)c12`, the T/C runs as follows: (dose: 50.0 mg/kg/injection, schedule: Q01DX005 (ip), vehicle: Klucel + Tween-80) 104 % of control; (dose: 100.0 mg/kg/injection, schedule: Q01DX005 (ip), vehicle: Klucel + Tween-80) 112 % of control; (dose: 200.0 mg/kg/injection, schedule: Q01DX005 (ip), vehicle: Klucel + Tween-80) 111 % of control.

For `O=c1c2cc(Cl)ccc2on1CN1CCOCC1`, the T/C reads like this: under setting [4], 111 % of control; under setting [5], 118 % of control; under setting [6], 111 % of control.

For `C(#Cc1c2ccccc2c(C#Cc2ccccc2)c2c(-c3ccccc3)cccc12)c1ccccc1`, the T/C by setting is: under setting [4], 97 % of control; under setting [5], 87 % of control.

As for `O=[N+]([O-])c1ccc(/C=C/C(CCN2CCCCC2)=N\O)o1`, the T/C by setting is: (dose: 60.0 mg/kg/injection, schedule: Q01DX005 (ip), vehicle: saline with Tween-80) 104 % of control; (dose: 120.0 mg/kg/injection, schedule: Q01DX005 (ip), vehicle: saline with Tween-80) 104 % of control; (dose: 240.0 mg/kg/injection, schedule: Q01DX005 (ip), vehicle: saline with Tween-80) 100 % of control.

Turning to `CC(C)(C)OC(=O)NNS(=O)(=O)CCC(NC(=O)OCc1ccccc1)C(=O)OCc1ccccc1` (stereo not given), the T/C (dose: 12.5 mg/kg/injection, schedule: Q01DX009 (ip), vehicle: other) is 100 % of control; the T/C (dose: 25.0 mg/kg/injection, schedule: Q01DX009 (ip), vehicle: other) is 97 % of control; the T/C (dose: 50.0 mg/kg/injection, schedule: Q01DX009 (ip), vehicle: other) is 92 % of control; the T/C (dose: 100.0 mg/kg/injection, schedule: Q01DX009 (ip), vehicle: other) is 88 % of control; the T/C (dose: 200.0 mg/kg/injection, schedule: Q01DX009 (ip), vehicle: other) was 90 % of control.

Regarding `CC1C[C@@H]2OC(=O)C(C)[C@@H]2C(O)[C@@]2(C)C(=O)C=CC12` (stereo not given in full), the T/C runs as follows: (dose: 1.38 mg/kg/injection, schedule: Q01DX005 (ip), vehicle: Klucel (hydroxypropylcellulose) (HPC)) 104 % of control; (dose: 2.75 mg/kg/injection, schedule: Q01DX005 (ip), vehicle: Klucel (hydroxypropylcellulose) (HPC)) 104 % of control; (dose: 5.5 mg/kg/injection, schedule: Q01DX005 (ip), vehicle: Klucel (hydroxypropylcellulose) (HPC)) 112 % of control; (dose: 11.0 mg/kg/injection, schedule: Q01DX005 (ip), vehicle: Klucel (hydroxypropylcellulose) (HPC)) 111 % of control.

As for `c1ccc(OP2(Oc3ccccc3)=NP(Oc3ccccc3)(Oc3ccccc3)=NP(Oc3ccccc3)(Oc3ccccc3)=NP(Oc3ccccc3)(Oc3ccccc3)=N2)cc1`, the T/C runs as follows: under setting [1], 97 % of control; under setting [2], 91 % of control.
